From US20220274967A1, “BCAT MODULATION” (Icagen, LLC, priority 2019, published 2022)

Assays:
BCAT2 = target: T1, BCAT2 (Homo sapiens, UniProt O15382); experiment: BCAT2 enzyme inhibition (human); format: biochemical
T1 sequence (O15382 28-392): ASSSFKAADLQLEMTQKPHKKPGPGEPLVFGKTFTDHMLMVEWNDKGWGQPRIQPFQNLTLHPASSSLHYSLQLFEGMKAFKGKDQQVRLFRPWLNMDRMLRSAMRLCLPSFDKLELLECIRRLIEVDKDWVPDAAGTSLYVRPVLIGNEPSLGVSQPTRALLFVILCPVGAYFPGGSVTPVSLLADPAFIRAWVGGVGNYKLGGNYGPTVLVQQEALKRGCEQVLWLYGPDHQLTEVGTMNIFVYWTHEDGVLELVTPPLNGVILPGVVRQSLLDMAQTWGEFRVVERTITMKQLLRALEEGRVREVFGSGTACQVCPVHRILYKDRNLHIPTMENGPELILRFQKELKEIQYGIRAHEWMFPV
Experimental: In further embodiments, the functional modulation of BCAT2 is assayed using a cell-free assay. In various embodiments, the cell-free assay is an enzyme-coupled fluorescent assay. For example, the disclosure contemplates use of an assay that monitors the production of L-glutamate from branch-chain amino acids and α-ketoglutarate through the coupling of hBCATm activity to two additional enzymes, L-Glutamate Oxidase (L-GOx) and Horseradish Peroxidase (HRP). Specifically, L-GOx catabolizes L-glutamate to generate α-ketoglutarate and […], the latter being utilized by HRP and leading to the formation of fluorescent resorufin from the redox-sensitive dye Amplex Red. In some embodiments, the test compound is classified as a candidate compound if a decrease in L-glutamate is measured. In further embodiments, the test compound is classified as a candidate compound if a decrease in α-ketoglutarate is measured.

GM00371 cells = experiment: Viability assay (Cell titer glo) in the 3-HIB assay; format: cell-based, human; details: Homo sapiens, 24 h, read-out: 3HIB INHIBITION IC50 (μM) MEAN GM00371 cells Viablility Assay
Experimental: Cell Plating: Cells (Coriell Institute GM00371 cells) were plated (96-well clear bottom sterile plate; Greiner 655098) at 10,000 cells/0.1 mL in Eagle's minimum essential medium (EMEM)/15% FBS (Gibco 16000-044) with a Combi dispenser in a cell culture hood and incubated at 37° C. and 5% CO2 overnight.
Compound Dilution: Compound were prepared as 33.3× intermediate dilution in DMSO in 96 well round polystyrene plates. For 30 μM final maximum start with 30 μL of 10 mM in DMSO. 10-12 1:3 serial dilutions were prepared from left to right (20 μL+40 μL DMSO). A 10× secondary dilution was prepare in EMEM by taking 7.5 μL 33.3× and transfer to replicate 96 well round polystyrene plates and then adding 242.5 μL EMEM A 1× final dilution in EMEM was prepared by taking 50 μL 10× dilution and transferring to replicate 96 well polypropylene assay block (Costar 3956) and adding 450 μL EMEM A control was prepared for maximal compound inhibition by taking 20 μL 10 mM Reference Compound A and adding 40 μL DMSO for a concentration of 3.3 mM To 7.5 μL of the 3.3 mM Reference Compound A solution and added 242.5 μL EMEM to make a 100 μM solution. The subsequent Reference Compound A solution was diluted with EMEM to achieve a final concentration of 10 μM. The structure of Reference Compound A is:
A control was prepared for maximal compound toxicity by taking 7.5 μL Reference Compound B and 242.5 μL EMEM to make […]. 50 μL of that 100 μM Reference Compound B solution was combined with 450 μL EMEM to achieve a concentration of 30 μM. The structure of Reference Compound B is
Compound Treatment: Media was aspirated from the cells and 100 μL of D-PBS (ThermoFisher 14190144) was added and then removed. 100 μL of diluted compound was added to the cells in the place and the cells were incubated at 37° C. and 5% CO2 for 24 hours.
Viability Assay: To the cells remaining in the plate 25 μL D-PBS and 25 μL Cell titer glo reagent (Promega G7572). The plate was placed on a shaker for 2 minutes, incubated at room temperature in the dark and then read on a Clariostar microplate reader.

BCAT1 = target: T2, BCAT1 (Homo sapiens, UniProt P54687); experiment: BCAT1 enzyme inhibition (human), Glutamate Glo luminescence; format: biochemical
T2 sequence (P54687 1-386): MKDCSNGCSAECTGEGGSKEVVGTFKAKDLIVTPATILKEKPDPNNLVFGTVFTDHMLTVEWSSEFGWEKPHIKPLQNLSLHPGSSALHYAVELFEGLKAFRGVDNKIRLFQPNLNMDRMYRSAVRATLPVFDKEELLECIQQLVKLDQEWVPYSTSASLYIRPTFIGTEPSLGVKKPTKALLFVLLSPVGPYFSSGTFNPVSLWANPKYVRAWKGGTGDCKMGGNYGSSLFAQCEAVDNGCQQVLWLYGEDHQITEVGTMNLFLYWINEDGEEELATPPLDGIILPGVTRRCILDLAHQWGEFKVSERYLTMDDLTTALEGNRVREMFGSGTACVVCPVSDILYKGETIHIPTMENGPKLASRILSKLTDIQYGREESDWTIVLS
Experimental: The BCAT1 inhibitory activity of selected compounds of the present disclosure were also evaluated. Compounds were prepared as up to 10 mM stock solutions generally using DMSO as the vehicle. 10-point dose response curves were generated using the Echo-550 (Labcyte) acoustic dispenser. Compound source plates ([…]) were made by serially diluting compound stocks to create 1 mM, 0.1 mM, and 0.01 mM solutions in DMSO into Echo certified LDV plates. The Echo then serially spotted 100% DMSO stock solutions into source dose response plates to generate a semi-log fold dilution scheme. 100% DMSO was added to the spotted dose response plates to bring the final volume to 5 μL, creating a 333× stock plate. 120 nL of the dose response stock plate was then spotted into the assay plate. 10 μL of assay buffer (50 mM Tris with 0.05% TWEEN-20) was then added to the plates resulting in a 4× working concentration in the assay plate. Final assay test concentration range was 3 μM to 0.0001 μM with a final DMSO concentration of 0.3%.
BCAT1 enzyme stock was first diluted to a 4× working concentration of 0.24 μg/mL in assay buffer (final assay concentration is 0.06 ug/ml). 10 μL of the 4×BCAT1 solution was then added to the previously prepared assay plate containing test compound or controls, and incubated at room temperature, protected from light, for either 10 or 60 minutes. After the compound incubation period, 20 μL of assay buffer plus 2× substrate is added to all wells (Final assay concentration of substrates is 300 μM L-leucine and 250 μM alpha-ketoglutaric acid). Enzyme reaction was then incubated for 10 minutes at room temperature. After the 10 minute incubation, the enzymatic reaction was halted with the addition of 5 μL of 0.6N HCl and incubated for 1 min. 5 μL of 1M Tris (pH 8.0) was then added to neutralize pH. 12.5 μL of the quenched assay volume was then transferred to a white, 384 well plate and 12.5 μL of Glutamate detection reagent was added (detection reagent prepared per Promega Glutamate Glo kit instructions). Plates were then incubated for 30 minutes at room temperature, protected from light. After glutamate detection incubation period, luminescence was read on BMG Novostar and relative light units was measured and exported for analysis.
Compound modulation of BCAT1 enzymatic activity was determined as follows. IC50 values were calculated in ActivityBase, using a 4-parameter fit equation. Data was normalized to maximum inhibition form the reference agent VS558CSA (at 10 μM). Relative light units were exported for analysis and % inhibition values for each well were calculated using the following formula: […]

SMILES	IC50 (BCAT2)	IC50 (GM00371 cells)	IC50 (BCAT1)
CNC(=O)c1ccc2c(C3CCCC(NC(=O)c4ccc(Br)s4)C3)c(-c3ccccc3)[nH]c2c1 (stereo not drawn) [Compound 283, 3-(3-(5-bromothiophene-2-carboxamido)cyclohexyl)-N-methyl-2 phenyl-1H-indole-6-carboxamide]	> 1 µM	≥ 1 µM	–
CNC(=O)c1ccc2c(c1)nc(-c1ccccn1)n2[C@@H]1CCC[C@H](NC(=O)c2ccc(C(=O)OC)s2)C1 [Compound 122]	> 1 µM	≥ 1 µM	–
CNC(=O)c1cc2nc(-c3ccccn3)n([C@H]3CCC[C@@H](NC(=O)c4ccc(Br)s4)C3)c2cc1OC [Compound 211]	< 0.1 µM	0.1 to 0.5 µM	–
CNC(=O)c1ccc2c(c1)nc(-c1ccccn1)n2[C@@H]1CCC[C@H](NC(=O)c2ccccc2)C1 [Compound 115]	> 1 µM	≥ 1 µM	–
CNC(=O)c1ccc2c(c1)nc(-c1ccccn1)n2[C@@H]1CCC[C@H](NC(=O)c2ccc(-c3ccccc3)s2)C1 [Compound 111]	> 1 µM	≥ 1 µM	–
CNC(=O)c1cc2nc(-c3ccccn3)n([C@H]3CCC[C@@H](NC(=O)c4ccc(Cl)s4)C3)c2cc1OC [Compound 214]	< 0.1 µM	0.1 to 0.5 µM	–
CNC(=O)c1ccc2c(c1)nc(-c1ccccn1)n2[C@@H]1CCC[C@@H](NC(=O)c2ccc(Br)s2)C1 [Compound 101]	–	–	≥ 1 µM
CNC(=O)c1ccc2c(C3CCCC(NC(=O)c4ccc(-c5ccccc5)s4)C3)c(-c3ccccc3)[nH]c2c1 (stereo not drawn) [Compound 304]	> 1 µM	≥ 1 µM	–
CNC(=O)c1ccc2c(c1)nc(-c1ccccn1)n2C1CCCC(NC(=O)c2ccc(C3CC3)s2)C1 (stereo not drawn) [Compound 144]	0.5 to 1 µM	≥ 1 µM	–
CNC(=O)c1ccc2c(c1)nc(-c1ccccn1)n2[C@H]1CC[C@@H](NC(=O)c2ccc(Br)s2)C1 [Compound 132]	0.1 to 0.5 µM	≥ 1 µM	–
CNC(=O)c1cc2nc(-c3ccccc3)n([C@H]3CCC[C@@H](NC(=O)c4ccc(Br)s4)C3)c2cn1 [Compound 297]	< 0.1 µM	0.1 to 0.5 µM	–
C=CC(=O)NCc1ccc(C(=O)N[C@H]2CCC[C@@H](n3c(-c4ccccn4)nc4cc(C(=O)NC)ccc43)C2)s1 [Compound 108]	> 1 µM	≥ 1 µM	–
COC(=O)c1ccc2c(c1)nc(-c1ccccn1)n2[C@@H]1CCC[C@H](NC(=O)c2cccs2)C1 [Compound 117]	> 1 µM	≥ 1 µM	–
CNC(=O)c1cc2nc(-c3ccccc3F)n([C@H]3CCC[C@@H](NC(=O)c4ccc(Cl)s4)C3)c2cc1OC [Compound 212]	< 0.1 µM	< 0.1 µM	–
